Converted amounts (≈) assume the structure as drawn. The source made the active and inactive calls. No cut-off for these calls is given here.

The values below come from ChEMBL document CHEMBL3860107, “Discovery of [5-Amino-1-(2-methyl-3H-benzimidazol-5-yl)pyrazol-4-yl]-(1H-indol-2-yl)methanone (CH5183284/Debio 1347), An Orally Available and Selective Fibroblast Growth Factor Receptor (FGFR) Inhibitor” (J Med Chem, 2016).

Series [1] addresses Fibroblast growth factor receptor 1 (Homo sapiens, UniProt P11362).
Description: Inhibition of human FGFR1 by time-resolved fluorescence or time-resolved fluorescence assay
For series [2], the target named is Fibroblast growth factor receptor 4 (Homo sapiens, UniProt P22455). The experiment in a line: Inhibition of human FGFR4 by time-resolved fluorescence or time-resolved fluorescence assay.
Sequence of Fibroblast growth factor receptor 4 (P22455 whole entry): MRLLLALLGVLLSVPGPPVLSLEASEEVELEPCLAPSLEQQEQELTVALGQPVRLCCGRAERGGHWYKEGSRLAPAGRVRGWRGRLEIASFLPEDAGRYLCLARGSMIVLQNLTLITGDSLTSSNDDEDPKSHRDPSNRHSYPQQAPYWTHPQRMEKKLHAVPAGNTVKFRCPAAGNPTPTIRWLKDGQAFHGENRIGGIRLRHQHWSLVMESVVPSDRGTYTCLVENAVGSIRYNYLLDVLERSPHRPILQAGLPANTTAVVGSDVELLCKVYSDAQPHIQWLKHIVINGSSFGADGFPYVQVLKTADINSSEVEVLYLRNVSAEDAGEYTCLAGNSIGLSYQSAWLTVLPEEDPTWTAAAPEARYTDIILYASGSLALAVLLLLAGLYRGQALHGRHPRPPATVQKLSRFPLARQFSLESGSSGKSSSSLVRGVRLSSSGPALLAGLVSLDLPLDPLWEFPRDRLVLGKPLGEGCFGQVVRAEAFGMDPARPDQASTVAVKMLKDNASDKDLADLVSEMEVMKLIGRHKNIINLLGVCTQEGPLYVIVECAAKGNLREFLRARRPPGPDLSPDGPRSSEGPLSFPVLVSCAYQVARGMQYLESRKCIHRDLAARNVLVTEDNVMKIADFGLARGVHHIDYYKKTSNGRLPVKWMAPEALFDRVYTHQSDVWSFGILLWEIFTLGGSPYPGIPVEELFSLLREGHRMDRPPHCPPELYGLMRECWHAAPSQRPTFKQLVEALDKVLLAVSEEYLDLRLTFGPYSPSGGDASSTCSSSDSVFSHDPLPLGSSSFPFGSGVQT
Series [3] addresses Fibroblast growth factor receptor 3 (Homo sapiens, UniProt P22607).
Description: Inhibition of human FGFR3 by time-resolved fluorescence or time-resolved fluorescence assay
Series [4] addresses Vascular endothelial growth factor receptor 2 (Homo sapiens, UniProt P35968). The experiment in a line: Inhibition of human KDR by time-resolved fluorescence or time-resolved fluorescence assay.
The nature of series [5]: Oral bioavailability cynomolgus monkey at 1 mg/kg by LC-MS/MS method. It counts as ADME, organism-based, Macaca fascicularis. As to conditions: in vivo.
A short description of series [6]: Antiproliferative activity against human SNU16 cells incubated for 4 days by CCK8 assay. It counts as functional, cell-based. As to conditions: SNU-16, 96 h. On the technique in general: Tetrazolium dyes change colour on reduction, which living cells bring about.
A short description of series [7]: Intrinsic clearance in human liver microsomes at 1 uM in presence of NADPH incubated for 30 mins by LC/MS method. As to conditions: read-out: CLH. It counts as ADME. (Microsomes from liver hold many membrane-bound enzymes, among them those of drug oxidation.)
In series [8] the target is Voltage-gated inwardly rectifying potassium channel KCNH2 (Homo sapiens, UniProt Q12809). Nature of the series: Inhibition of human ERG expressed in CHO cells assessed as reduction in channel currents at -80 mV holding potential by automated whole-cell patch clamp method. Background: In patch-clamp work, channel activity is measured electrically.
Sequence of Voltage-gated inwardly rectifying potassium channel KCNH2 (Q12809 whole entry): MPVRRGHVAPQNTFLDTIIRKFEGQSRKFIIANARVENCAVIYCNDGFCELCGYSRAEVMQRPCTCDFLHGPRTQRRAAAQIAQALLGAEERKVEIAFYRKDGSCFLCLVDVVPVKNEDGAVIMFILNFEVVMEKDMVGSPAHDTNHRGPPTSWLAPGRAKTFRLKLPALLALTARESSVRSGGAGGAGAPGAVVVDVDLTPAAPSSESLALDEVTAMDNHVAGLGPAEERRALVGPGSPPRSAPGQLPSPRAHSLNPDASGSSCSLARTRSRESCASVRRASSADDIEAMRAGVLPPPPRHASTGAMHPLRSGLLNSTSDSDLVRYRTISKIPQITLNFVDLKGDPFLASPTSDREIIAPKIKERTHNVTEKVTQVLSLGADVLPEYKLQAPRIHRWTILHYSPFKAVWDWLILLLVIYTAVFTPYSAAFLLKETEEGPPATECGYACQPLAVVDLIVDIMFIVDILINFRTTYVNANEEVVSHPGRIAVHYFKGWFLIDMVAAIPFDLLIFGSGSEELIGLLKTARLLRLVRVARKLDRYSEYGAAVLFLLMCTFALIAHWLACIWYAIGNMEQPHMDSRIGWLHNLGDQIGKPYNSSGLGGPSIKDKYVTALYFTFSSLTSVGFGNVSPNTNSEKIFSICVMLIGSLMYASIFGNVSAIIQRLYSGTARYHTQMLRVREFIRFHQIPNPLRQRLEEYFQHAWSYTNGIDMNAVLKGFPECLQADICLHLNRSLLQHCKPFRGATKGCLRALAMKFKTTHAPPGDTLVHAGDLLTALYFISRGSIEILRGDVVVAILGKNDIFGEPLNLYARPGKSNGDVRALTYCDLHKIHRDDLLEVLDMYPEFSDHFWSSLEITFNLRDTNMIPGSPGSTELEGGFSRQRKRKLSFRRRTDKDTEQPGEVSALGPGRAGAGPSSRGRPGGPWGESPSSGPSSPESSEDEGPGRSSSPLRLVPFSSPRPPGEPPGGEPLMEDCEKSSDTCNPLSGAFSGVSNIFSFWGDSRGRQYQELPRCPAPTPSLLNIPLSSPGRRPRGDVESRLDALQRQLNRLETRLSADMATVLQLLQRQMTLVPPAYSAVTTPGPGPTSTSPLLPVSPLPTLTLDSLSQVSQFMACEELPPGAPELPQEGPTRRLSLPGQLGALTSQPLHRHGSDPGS
Series [9] concerns the target hERG (KCNH2) (Homo sapiens, UniProt Q12809). Nature of the series: Inhibition of human ERG expressed in CHO cells assessed as reduction in channel currents at 10 uM at -80 mV holding potential by automated whole-cell patch clamp method. To be noted: CHO cells that express hERG.
Series [10] can be described thus: Permeability from apical to basolateral side in human Caco2 cells at 10 uM incubated for 120 mins by LC-MS/MS method. It counts as ADME, cell-based. As to conditions: Caco-2, read-out: permeability.
Series [11] in a line: cells. To be noted: Homo sapiens, HCT-116, 96 h.
Description: Antiproliferative activity against human HCT116 cells incubated for 4 days by CCK8 assay
Series [12] has as its target Proto-oncogene tyrosine-protein kinase Src (Homo sapiens, UniProt P12931). The experiment in a line: Inhibition of human SRC by time-resolved fluorescence or time-resolved fluorescence assay.
A short description of series [13]: Solubility in FaSSIF at pH 6.5 irradiated ultrasonically for 10 mins and shaken for 2 hrs followed by centrifugation for 10 mins by HPLC-UV method. It counts as physicochemical.
The test system of series [14] is MFE-280. To be noted: Homo sapiens.
Description: Antitumor activity against FGFR2 S252W mutant expressing human MFE280 cells xenografted in mouse
Series [15] can be described thus: Antitumor activity against human SNU16 cells xenografted in CAnN.Cg-Foxn1 (nu)/CrlCrlj nu/nu BALB nu/nu mouse assessed as tumor growth inhibition at 30 mg/kg, po qd for 11 days. It counts as functional. As to conditions: SNU-16, po, 264 h, read-out: TGI.
Series [16] concerns KG-1. As to conditions: Homo sapiens.
Description: Antitumor activity against FGFR1OP-FGFR1 fusion protein expressing human KG1 cells xenografted in mouse
In series [17] the test system is RT112/84. As to conditions: Homo sapiens.
Description: Antitumor activity against FGFR3-TACC3 mutant expressing human RT112/84 cells xenografted in mouse
Series [18] concerns SNU-16. To be noted: Homo sapiens.
The nature of series [19]: Antitumor activity against human SNU16 cells xenografted in CAnN.Cg-Foxn1 (nu)/CrlCrlj nu/nu BALB nu/nu mouse assessed as tumor growth inhibition at 100 mg/kg, po qd for 11 days. It counts as functional. To be noted: SNU-16, po, 264 h, read-out: TGI.
Series [20] deals with UM-UC-14. As to conditions: Homo sapiens.
Description: Antitumor activity against FGFR3 S249C mutant expressing human UM-UC-14 cells xenografted in mouse
The species entered for series [21] is Rattus norvegicus. Nature of the series: Cardiotoxicity in rat assessed as effect on blood pressure. It counts as toxicity, organism-based.
In series [22] the test system is Mus musculus. The experiment in a line: Toxicity in human SNU16 cells xenografted CAnN.Cg-Foxn1 (nu)/CrlCrlj nu/nu BALB nu/nu mouse assessed as induction of body weight loss at 30 and 100 mg/kg, po qd for 11 days. It counts as organism-based, SNU-16. As to conditions: in vivo, 264 h.
The nature of series [23]: AUC in rat at 30 mg/kg. In kind it is ADME, organism-based. To be noted: in vivo.
Series [24] in a line: Cardiotoxicity in monkey assessed as effect on blood pressure. In kind it is toxicity, Macaca mulatta. As to conditions: rhesus monkey.
A short description of series [25]: Cardiotoxicity in Langendorff's isolated guinea pig heart perfusion model in assessed as induction of QTc prolongation. It counts as toxicity, tissue-based, Cavia porcellus.
The test system of series [26] is Rattus norvegicus. The experiment in a line: Cardiotoxicity in telemetry instrumented rat assessed as effect on blood pressure at 30 mg/kg. It counts as toxicity, organism-based. As to conditions: in vivo.

Sequence of hERG (KCNH2) (Q12809 whole entry): as above
Sequence of Vascular endothelial growth factor receptor 2 (P35968 whole entry): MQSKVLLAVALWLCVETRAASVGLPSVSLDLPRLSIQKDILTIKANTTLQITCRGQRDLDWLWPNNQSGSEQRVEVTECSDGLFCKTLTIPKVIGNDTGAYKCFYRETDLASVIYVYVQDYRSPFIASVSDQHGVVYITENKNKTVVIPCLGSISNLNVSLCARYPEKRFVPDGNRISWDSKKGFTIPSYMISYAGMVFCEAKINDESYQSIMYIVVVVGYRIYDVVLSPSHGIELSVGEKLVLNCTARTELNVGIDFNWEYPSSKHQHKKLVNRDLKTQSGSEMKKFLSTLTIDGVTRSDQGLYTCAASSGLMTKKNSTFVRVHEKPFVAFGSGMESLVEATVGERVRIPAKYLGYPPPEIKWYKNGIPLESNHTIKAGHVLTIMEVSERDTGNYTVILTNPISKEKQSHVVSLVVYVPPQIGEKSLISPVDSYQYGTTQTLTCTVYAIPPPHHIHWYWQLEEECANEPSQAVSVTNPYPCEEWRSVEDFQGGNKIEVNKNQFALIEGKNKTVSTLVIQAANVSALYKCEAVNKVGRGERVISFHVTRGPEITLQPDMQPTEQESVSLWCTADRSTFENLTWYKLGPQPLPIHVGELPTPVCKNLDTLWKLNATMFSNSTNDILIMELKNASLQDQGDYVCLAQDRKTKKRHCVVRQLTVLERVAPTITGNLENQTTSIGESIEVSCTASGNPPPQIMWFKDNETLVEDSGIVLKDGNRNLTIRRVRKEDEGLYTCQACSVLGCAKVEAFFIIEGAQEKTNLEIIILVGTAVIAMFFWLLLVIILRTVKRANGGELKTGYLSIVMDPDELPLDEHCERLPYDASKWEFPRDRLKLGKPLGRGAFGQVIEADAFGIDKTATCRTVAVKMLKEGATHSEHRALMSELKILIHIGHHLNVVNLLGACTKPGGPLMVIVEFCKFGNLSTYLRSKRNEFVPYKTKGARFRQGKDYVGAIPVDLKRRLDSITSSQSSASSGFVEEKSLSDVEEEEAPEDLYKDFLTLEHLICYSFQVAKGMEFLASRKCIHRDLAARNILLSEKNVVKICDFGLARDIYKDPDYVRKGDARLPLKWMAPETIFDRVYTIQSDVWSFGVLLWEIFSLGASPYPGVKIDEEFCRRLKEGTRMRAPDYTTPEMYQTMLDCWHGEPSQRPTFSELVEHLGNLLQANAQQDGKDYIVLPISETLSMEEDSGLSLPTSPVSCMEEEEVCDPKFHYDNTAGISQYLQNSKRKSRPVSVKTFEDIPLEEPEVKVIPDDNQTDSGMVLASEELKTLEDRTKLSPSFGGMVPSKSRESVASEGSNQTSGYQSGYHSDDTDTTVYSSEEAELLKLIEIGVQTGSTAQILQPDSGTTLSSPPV
Sequence of Proto-oncogene tyrosine-protein kinase Src (P12931 2-536 limits assumed): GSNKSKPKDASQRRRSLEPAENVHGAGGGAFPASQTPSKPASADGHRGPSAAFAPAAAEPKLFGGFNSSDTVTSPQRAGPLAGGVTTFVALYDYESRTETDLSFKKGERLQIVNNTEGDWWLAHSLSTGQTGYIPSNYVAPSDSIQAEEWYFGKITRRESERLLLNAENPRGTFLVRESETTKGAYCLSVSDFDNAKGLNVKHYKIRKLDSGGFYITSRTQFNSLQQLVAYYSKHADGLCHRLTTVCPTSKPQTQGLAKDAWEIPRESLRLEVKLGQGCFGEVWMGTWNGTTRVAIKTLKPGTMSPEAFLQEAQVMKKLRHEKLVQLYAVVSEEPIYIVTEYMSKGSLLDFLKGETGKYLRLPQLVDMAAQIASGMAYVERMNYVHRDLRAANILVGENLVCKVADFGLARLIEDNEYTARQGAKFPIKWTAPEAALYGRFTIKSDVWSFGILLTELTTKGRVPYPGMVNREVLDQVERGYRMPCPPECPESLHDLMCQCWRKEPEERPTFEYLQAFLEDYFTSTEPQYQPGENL

With `Nc1c(C(=O)c2cc3ccccc3[nH]2)cnn1-c1ccc2[nH]c(=O)[nH]c2c1`, the IC50 (commonly the concentration that gives 50% inhibition) is greater than 50 µM in [1], greater than 50 µM in series [2], greater than 50 µM in series [3] and 2.7 µM in series [4].

As to `Cc1nc2cc(-n3ncc(C(=O)c4cc5ccc(CN6CCC(F)(F)CC6)cc5[nH]4)c3N)ccc2[nH]1`, the bioavailability (in general, dose-corrected exposure relative to a reference, in per cent) in series [5] was 5%. The IC50 in series [6] was 0.006 µM; in series [4], 0.28 µM; in series [8], 8.6 µM. Besides, the microsomal CLint at 1 µM in series [7] was determined as 14 µL/min/mg. Also, in series [9], the inhibition (commonly the change of the read-out against control, counted positive when it falls) at 10 µM was 58%.

Molecule `Cc1nc2cc(-n3ncc(C(=O)c4cc5ccc(CN6CCOCC6)cc5[nH]4)c3N)ccc2[nH]1` showed a bioavailability in series [5] of 0%. In addition, the values for the half-maximal inhibitory concentration (IC50) in series [6], in series [4] and in [8] were 0.0026 µM, 0.12 µM and greater than 10 µM, respectively. Besides, in series [7], the microsomal CLint at 1 µM was found to be 9.6 µL/min/mg. Moreover, in [9], the inhibition at 10 µM amounted to 15%.

Take `Cc1nc2cc(-n3ncc(C(=O)c4cc5ccc(Br)cc5[nH]4)c3N)ccc2[nH]1`: the Papp A→B at 2 h, 10 µM in series [10] is 22 nm/s. The molecule also showed a bioavailability in series [5] of 20%. In addition, the IC50 was 0.052 µM in series [6]; 11 µM in series [11]; greater than 50 µM in series [12]; 0.29 µM in series [4]; greater than 10 µM in series [8]. For the same molecule, the microsomal CLint at 1 µM in series [7] amounted to 4.2 µL/min/mg. In [9], the inhibition at 10 µM stood at 31%.

`Cc1nc2cc(-n3ncc(C(=O)c4cc5ccc(-c6ccccc6)cc5[nH]4)c3N)ccc2[nH]1`: the bioavailability in series [5] amounted to 3%. For the same molecule, the IC50 in series [6] was 0.084 µM; in series [12] it was greater than 50 µM; in series [4], 3.4 µM; in series [8] it was greater than 10 µM. Moreover, the microsomal CLint at 1 µM in series [7] is 3.2 µL/min/mg. In addition, the inhibition at 10 µM in series [9] amounted to 15%.

For the molecule `Nc1c(C(=O)c2cc3cc(CN4CCOCC4)ccc3[nH]2)cnn1-c1cc(O)ccc1Cl`, the IC50 in series [6] was 0.55 µM; in series [11], 3.6 µM; in series [4] it was 0.0024 µM. The microsomal CLint at 1 µM in series [7] turned out to be 20 µL/min/mg. Also, in series [13], the solubility (usually the concentration that dissolves in the medium under given conditions) at 2 h was found to be 0.04 mg/mL (≈ 88.5 µM).

On to `Cc1nc2ccc(-n3ncc(C(=O)c4cc5ccccc5[nH]4)c3N)cc2[nH]1` [FGFR INHIBITOR DEBIO 1347], for which the IC50 in series [6] stood at 0.017 µM; in series [11], 5.9 µM. Further, the TGI entry in series [14], in series [16], in series [17] and in [20] was “Active” in each case. In addition, the inhibition in vivo at 30 mg/kg in [15] turned out to be 106%. In addition, the AUC in series [18] came out at 26000 ng·h/mL. Also, in series [19], the inhibition in vivo at 100 mg/kg came out at 147%.

`Cc1nc2cc(-n3ncc(C(=O)c4cc5ccccc5[nH]4)c3N)ccc2[nH]1` [FGFR INHIBITOR DEBIO 1347]: the Activity result in [21], in series [22], in series [24], in series [25] and in series [26] was “Non-Toxic” in each case. Besides, in series [5], the bioavailability stood at 30%. The IC50 in series [2] came to 0.29 µM; in [12] it was 5.9 µM; in series [4], 2.1 µM; in series [8] it was 6.9 µM. Moreover, the microsomal CLint at 1 µM in series [7] is 13 µL/min/mg. In addition, the AUC in [23] came out at 102 µg·h/mL. Further, the solubility at 2 h in series [13] worked out at 0.029 mg/mL (≈ 81.4 µM). The inhibition at 10 µM in series [9] is 69%.

Take `Cc1cccc(C(=O)c2cnn(-c3cc(O)ccc3Cl)c2N)c1`: the IC50 in series [6] was 15 µM; in series [11] it was greater than 20 µM; in series [4], 2.9 µM.

Regarding `Nc1c(C(=O)c2cc3ccccc3[nH]2)cnn1-c1ccc2[nH]ccc2c1`, the IC50 in [6] came to 0.19 µM; in [11] it was 0.47 µM. In series [7], the microsomal CLint at 1 µM is 4.4 µL/min/mg. In series [13], this molecule gave a solubility at 2 h of 0.004 mg/mL (≈ 11.7 µM).

Turning to `Cc1ccc2cc(C(=O)c3cnn(-c4ccc5nc(C)[nH]c5c4)c3N)[nH]c2c1`, the results for the IC50 in series [11], in [4] and in [8] were 9.7 µM, 0.37 µM and 6.9 µM, respectively. The microsomal CLint at 1 µM in series [7] worked out at 140 µL/min/mg. Besides, in [9], the inhibition at 10 µM is 64%.

In the case of `Cc1cc2cc(-n3ncc(C(=O)c4cc5ccccc5[nH]4)c3N)ccc2[nH]1`, the IC50 in series [6] is 0.053 µM; in [11], 5.3 µM. For the same molecule, in series [7], the microsomal CLint at 1 µM came out at 10 µL/min/mg. For the same molecule, in series [13], the solubility at 2 h stood at 0.01 mg/mL (≈ 28.1 µM).

In the case of `CCc1nc2cc(-n3ncc(C(=O)c4cc5ccccc5[nH]4)c3N)ccc2[nH]1`, the IC50 in [6] stood at 0.077 µM; in [11], 1.5 µM; in series [4], 1.7 µM. Further, the microsomal CLint at 1 µM in series [7] was determined as 23 µL/min/mg. The molecule further returned a solubility at 2 h in series [13] of 0.042 mg/mL (≈ 113 µM).

`Nc1c(C(=O)c2ccc3ncccc3c2)cnn1-c1cc(O)ccc1Cl`: the IC50 in [6] worked out at 8.9 µM; in [11], 9.3 µM; in series [4], 1.6 µM.

As for `Nc1c(C(=O)c2cc3ccccc3o2)cnn1-c1cc(O)ccc1Cl`, the IC50 in series [6] worked out at 3.3 µM; in series [11], 8.2 µM; in [4], 0.17 µM.

Turning to `Nc1c(C(=O)c2cc3ccccc3[nH]2)cnn1-c1ccc2nc[nH]c2c1`, the IC50 in [6] is 0.38 µM; in series [11] it was 17 µM; in [4] it was 0.34 µM. The microsomal CLint at 1 µM in [7] was 4.2 µL/min/mg. In series [13], this molecule had a solubility at 2 h of 0.037 mg/mL (≈ 108 µM).

Regarding `Cc1nc2cc(-n3ncc(C(=O)c4cc5ccc(S(C)(=O)=O)cc5[nH]4)c3N)ccc2[nH]1`, the figures for the IC50 in [6], in [11] and in series [4] were 0.082 µM, 37 µM and 1 µM, respectively. Moreover, the microsomal CLint at 1 µM in series [7] was 5.4 µL/min/mg.

For the molecule `Cc1nc2ccc(-n3ncc(C(=O)c4cc5cc(CN6CCOCC6)ccc5[nH]4)c3N)cc2[nH]1`, the IC50 was 0.017 µM in series [6], 8.9 µM in series [11], 0.21 µM in series [4] and greater than 10 µM in [8]. In addition, the microsomal CLint at 1 µM in series [7] came to 15 µL/min/mg. In [9], the inhibition at 10 µM was 7%.

On to `Nc1c(C(=O)c2cc3ccccc3[nH]2)cnn1-c1ccccc1Cl`, for which the half-maximal inhibitory concentration (IC50) in [6] was determined as 2.9 µM; in series [11], 2.7 µM; in [4], 0.41 µM.

Regarding `Nc1c(C(=O)c2cc3ccccc3[nH]2)cnn1-c1cc(O)ccc1Cl`, the IC50 amounted to 0.36 µM in series [6], 2.6 µM in series [11] and 0.028 µM in [4]. Moreover, the microsomal CLint at 1 µM in series [7] stood at 15 µL/min/mg. Moreover, in [13], the solubility at 2 h stood at 0.02 mg/mL (≈ 56.7 µM).
